# Test results published in patent publication US20240101540A1, “TARGETED PROTEIN DEGRADATION OF PARP14 FOR USE IN THERAPY” (Ribon Therapeutics, Inc., priority 2022, published 2024).
# Structures can show the parent of a compound that is named as a salt.
# Target: T1, HiBiT tagged PARP14 (Homo sapiens, UniProt Q460N5)
# T1 construct: engineered to contain a HiBiT tag on both alleles of the PARP14 gene; endogenous in cells; host or cells: Jurkat cells stably transfected with LgBiT (Promega), PARP14 locus edited by CRISPR/Cas9
# T1 sequence (Q460N5 whole entry): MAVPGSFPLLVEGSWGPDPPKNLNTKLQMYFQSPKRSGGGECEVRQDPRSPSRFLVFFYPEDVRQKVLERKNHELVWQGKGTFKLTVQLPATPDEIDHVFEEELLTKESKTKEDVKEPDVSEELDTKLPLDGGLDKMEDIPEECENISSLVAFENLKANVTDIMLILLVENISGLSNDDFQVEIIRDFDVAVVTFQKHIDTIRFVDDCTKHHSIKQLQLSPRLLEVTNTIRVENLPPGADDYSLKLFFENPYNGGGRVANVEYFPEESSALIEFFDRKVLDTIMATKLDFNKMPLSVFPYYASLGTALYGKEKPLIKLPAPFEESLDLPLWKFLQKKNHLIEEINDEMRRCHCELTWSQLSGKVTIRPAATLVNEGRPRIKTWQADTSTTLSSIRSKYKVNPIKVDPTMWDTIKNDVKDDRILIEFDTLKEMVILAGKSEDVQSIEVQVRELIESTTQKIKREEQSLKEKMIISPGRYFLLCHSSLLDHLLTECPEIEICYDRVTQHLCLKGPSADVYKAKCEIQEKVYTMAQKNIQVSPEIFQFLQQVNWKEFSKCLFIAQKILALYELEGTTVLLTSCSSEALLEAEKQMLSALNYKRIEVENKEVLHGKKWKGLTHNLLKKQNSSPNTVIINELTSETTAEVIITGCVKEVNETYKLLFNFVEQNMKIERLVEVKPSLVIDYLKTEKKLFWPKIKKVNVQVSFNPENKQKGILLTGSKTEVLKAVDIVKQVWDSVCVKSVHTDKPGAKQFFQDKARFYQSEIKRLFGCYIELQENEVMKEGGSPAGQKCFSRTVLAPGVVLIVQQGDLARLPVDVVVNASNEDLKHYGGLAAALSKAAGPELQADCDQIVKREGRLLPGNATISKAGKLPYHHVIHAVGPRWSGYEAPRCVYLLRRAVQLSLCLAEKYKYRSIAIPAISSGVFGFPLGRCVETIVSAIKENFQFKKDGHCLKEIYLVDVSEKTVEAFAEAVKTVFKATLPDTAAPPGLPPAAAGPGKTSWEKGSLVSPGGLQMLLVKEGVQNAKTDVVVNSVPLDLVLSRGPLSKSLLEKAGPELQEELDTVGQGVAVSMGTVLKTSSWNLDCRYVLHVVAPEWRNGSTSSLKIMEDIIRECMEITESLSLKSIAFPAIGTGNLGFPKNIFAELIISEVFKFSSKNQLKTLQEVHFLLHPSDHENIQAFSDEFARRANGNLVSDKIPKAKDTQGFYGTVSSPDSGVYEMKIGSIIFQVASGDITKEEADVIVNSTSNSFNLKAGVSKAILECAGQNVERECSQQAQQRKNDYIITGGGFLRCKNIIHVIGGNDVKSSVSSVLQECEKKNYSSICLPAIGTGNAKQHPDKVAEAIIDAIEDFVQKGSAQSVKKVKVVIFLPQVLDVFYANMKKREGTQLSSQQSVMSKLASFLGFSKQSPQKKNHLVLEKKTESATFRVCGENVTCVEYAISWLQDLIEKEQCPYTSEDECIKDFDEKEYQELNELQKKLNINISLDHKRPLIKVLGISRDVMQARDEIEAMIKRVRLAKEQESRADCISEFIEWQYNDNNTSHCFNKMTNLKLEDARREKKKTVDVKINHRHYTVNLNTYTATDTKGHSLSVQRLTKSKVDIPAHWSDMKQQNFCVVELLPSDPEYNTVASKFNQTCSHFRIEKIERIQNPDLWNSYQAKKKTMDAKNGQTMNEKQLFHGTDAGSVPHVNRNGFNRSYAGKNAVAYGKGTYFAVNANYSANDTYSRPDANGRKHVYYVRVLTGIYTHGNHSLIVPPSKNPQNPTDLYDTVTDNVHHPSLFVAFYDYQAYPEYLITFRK
# Assay: HiBiT assay for the degradation of PARP14 (HiBiT tagged PARP14 in LgBiT expressing Jurkat cells, 2 or 24 hours)
# Type: cell-based
# Settings: Assay B (Example B): HiBiT tagged PARP14 degradation in LgBiT expressing Jurkat cells, read-out: DC50
# Method: Jurkat cells stably transfected with LgBiT (Promega) were engineered to contain a HiBiT tag on both alleles of the PARP14 gene (Genbank Accession Number: NM_017554) via CRISPR/Cas9 editing. The HiBiT tag is an 11 amino acid tag created by Promega that associates with LgBiT protein to form the NanoLuc® tag on the C-terminus of PARP14. Clones were isolated and confirmed for the HiBiT tag via Sanger sequencing.
# Degradation of PARP14 protein was assessed by measuring the luminescence of the HiBiT tag associating with the LgBiT protein as a proxy for the PARP14 protein.
# Jurkat cells were diluted to 250,000 cells per mL and then added to assay plate (Corning 3574) using a Multidrop (Thermo Fisher) to add 20 μL per well of the 384 well plate, resulting in 5,000 cells per well. 20 nL of a dose response curve diluted in DMSO of each test compound was added to the cell plate using a Mosquito (TTP Labtech) and the plate was incubated at 37° C. for 2 or 24 hours. Assay plate was brought to room temperature then 5 μL per well of Live Cell Substrate (Promega) was added to the plate. Luminescence was measured on an Envision (Perkin Elmer).
# The average DMSO was calculated from 32 wells containing 0.1% DMSO only in columns 12 and 24 of the assay plate. The % of DMSO values were calculated as described below: […]
# The % of DMSO values were plotted as a function of compound concentration and the following 4-parameter fit was applied to derive the DC50 values:
# where top, bottom, and Hill Coefficient are allowed to float. Y is the % of DMSO and X is the compound concentration.
# DC50 data for the Example compounds is provided below in Table 2 (“+” is ≤0.03 μM; “++” is ≥0.03 μM).
row,SMILES,DC50
1,"O=C1CCC(Nc2ccc(N3CCN(C(=O)N4CCC(COc5cc(F)c6c(=O)[nH]c(CSC7CCOCC7)nc6c5)CC4)CC3)c(F)c2)C(=O)N1 (stereo not drawn) [Example 154, 3-((3-fluoro-4-(4-(4-(((5-fluoro-4-oxo-2-(((tetrahydro-2H-pyran-4-yl)thio)methyl)-3,4-dihydroquinazolin-7-yl)oxy)methyl)piperidine-1-carbonyl)piperazin-1-yl)phenyl)amino)piperidine-2,6-dione]",< 0.03 µM
2,"Cn1nc(C2CCC(=O)NC2=O)c2ccc(N3CCC(N4CC(N5CCC(COc6cc(F)c7c(=O)[nH]c(CSC8CCOCC8)nc7c6)CC5)C4)CC3)cc21 (stereo not drawn) [Example 156, 3-(6-(4-(3-(4-(((5-fluoro-4-oxo-2-(((tetrahydro-2H-pyran-4-yl)thio)methyl)-3,4-dihydroquinazolin-7-yl)oxy)methyl)piperidin-1-yl)azetidin-1-yl)piperidin-1-yl)-1-methyl-1H-indazol-3-yl)piperidine-2,6-dione]",< 0.03 µM
3,"O=C1CCC(Nc2ccc(N3CCC(N4CC(N5CCC(COc6cc(F)c7c(=O)[nH]c(COC8CCOCC8)nc7c6)CC5)C4)CC3)c(F)c2)C(=O)N1 (single isomer, unassigned) [Example 136a, 3-((3-fluoro-4-(4-(3-(4-(((5-fluoro-4-oxo-2-(((tetrahydro-2H-pyran-4-yl)oxy)methyl)-3,4-dihydroquinazolin-7-yl)oxy)methyl)piperidin-1-yl)azetidin-1-yl)piperidin-1-yl)phenyl)amino)piperidine-2,6-dione]",< 0.03 µM
4,"O=C1CCC(Nc2ccc(N3CCC(N4CC(N5CCC(COc6ccc7c(=O)[nH]c(CSC8CCOCC8)nc7c6)CC5)C4)CC3)c(F)c2)C(=O)N1 (stereo not drawn) [Example 233, 3-((3-fluoro-4-(4-(3-(4-(((4-oxo-2-(((tetrahydro-2H-pyran-4-yl)thio)methyl)-3,4-dihydroquinazolin-7-yl)oxy)methyl)piperidin-1-yl)azetidin-1-yl)piperidin-1-yl)phenyl)amino)piperidine-2,6-dione]",< 0.03 µM
5,"Cn1nc(N2CCC(=O)NC2=O)c2cccc(C3CCN(CCN4CCC(COc5cc(F)c6c(=O)[nH]c(COC7CCOCC7)nc6c5)CC4)CC3)c21 [Example 203, 1-(7-(1-(2-(4-(((5-fluoro-4-oxo-2-(((tetrahydro-2H-pyran-4-yl)oxy)methyl)-3,4-dihydroquinazolin-7-yl)oxy)methyl)piperidin-1-yl)ethyl)piperidin-4-yl)-1-methyl-1H-indazol-3-yl)dihydropyrimidine-2,4(1H,3H)-dione]",< 0.03 µM
6,"COc1cc(N2CCC(N3CC(N4CCC(COc5cc(F)c6c(=O)[nH]c(CSC7CCOCC7)nc6c5)CC4)C3)CC2)c(F)cc1N1CCC(=O)NC1=O [Example 166, 1-(5-fluoro-4-(4-(3-(4-(((5-fluoro-4-oxo-2-(((tetrahydro-2H-pyran-4-yl)thio)methyl)-3,4-dihydroquinazolin-7-yl)oxy)methyl)piperidin-1-yl)azetidin-1-yl)piperidin-1-yl)-2-methoxyphenyl)dihydropyrimidine-2,4(1H,3H)-dione]",< 0.03 µM
7,"O=C1CCC(Nc2ccc(N3CCC(N4CCC(CCOc5cc(F)c6c(=O)[nH]c(CSC7CCOCC7)nc6c5)CC4)CC3)c(F)c2)C(=O)N1 (stereo not drawn) [Example 223, 3-((3-fluoro-4-(4-(2-((5-fluoro-4-oxo-2-(((tetrahydro-2H-pyran-4-yl)thio)methyl)-3,4-dihydroquinazolin-7-yl)oxy)ethyl)-[1,4′-bipiperidin]-1′-yl)phenyl)amino)piperidine-2,6-dione]",< 0.03 µM
8,"O=C1CCC(Nc2ccc(N3CCC(N4CCC(COc5cc(F)c6c(=O)[nH]c(CCC7CCOCC7)nc6c5)CC4)CC3)c(F)c2)C(=O)N1 (stereo not drawn) [Example 117, 3-((3-fluoro-4-(4-(((5-fluoro-4-oxo-2-(2-(tetrahydro-2H-pyran-4-yl)ethyl)-3,4-dihydroquinazolin-7-yl)oxy)methyl)-[1,4′-bipiperidin]-11′-yl)phenyl)amino)piperidine-2,6-dione]",< 0.03 µM
9,"O=C1CCC(Nc2ccc(N3CCC(N4CCC(COc5cc(F)c6c(=O)[nH]c(CSC7CCOCC7)nc6c5)CC4)CC3)cc2F)C(=O)N1 (stereo not drawn) [Example 222, 3-((2-fluoro-4-(4-(((5-fluoro-4-oxo-2-(((tetrahydro-2H-pyran-4-yl)thio)methyl)-3,4-dihydroquinazolin-7-yl)oxy)methyl)-[1,4′-bipiperidin]-1′-yl)phenyl)amino)piperidine-2,6-dione]",< 0.03 µM

# Continued, values first:
row,DC50,SMILES
1,< 0.03 µM,"O=C1CCC(Nc2ccc(N3CCN(CCN4CCC(COc5cc(F)c6c(=O)[nH]c(CCC7CCOCC7)nc6c5)CC4)CC3)c(F)c2)C(=O)N1 (stereo not drawn) [Example 100, 3-((3-fluoro-4-(4-(2-(4-(((5-fluoro-4-oxo-2-(2-(tetrahydro-2H-pyran-4-yl)ethyl)-3,4-dihydroquinazolin-7-yl)oxy)methyl)piperidin-1-yl)ethyl)piperazin-1-yl)phenyl)amino)piperidine-2,6-dione]"
2,< 0.03 µM,"O=C1CCC(Nc2ccc(NC(=O)[C@@H]3CCN(CCN4CCC(COc5cc(F)c6c(=O)[nH]c(COC7CCOCC7)nc6c5)CC4)C3)c(F)c2)C(=O)N1 (stereo partly drawn) [Example 200, (3R)-N-(4-((2,6-dioxopiperidin-3-yl)amino)-2-fluorophenyl)-1-(2-(4-(((5-fluoro-4-oxo-2-(((tetrahydro-2H-pyran-4-yl)oxy)methyl)-3,4-dihydroquinazolin-7-yl)oxy)methyl)piperidin-1-yl)ethyl)pyrrolidine-3-carboxamide]"
3,< 0.03 µM,"O=C1CCC(Nc2cc(F)c(N3CCC(N4CC(N5CCC(COc6cc(F)c7c(=O)[nH]c(CSC8CCOCC8)nc7c6)CC5)C4)CC3)cc2F)C(=O)N1 (stereo not drawn) [Example 218, 3-((2,5-difluoro-4-(4-(3-(4-(((5-fluoro-4-oxo-2-(((tetrahydro-2H-pyran-4-yl)thio)methyl)-3,4-dihydroquinazolin-7-yl)oxy)methyl)piperidin-1-yl)azetidin-1-yl)piperidin-1-yl)phenyl)amino)piperidine-2,6-dione]"
4,< 0.03 µM,O=C1CCC(Nc2ccc(OC3CCC(CN4CCC(COc5cc(F)c6c(=O)[nH]c(CSC7CCOCC7)nc6c5)CC4)CC3)cc2)C(=O)N1 (stereo not drawn) [Example 111]
5,< 0.03 µM,"O=C1CCC(Nc2ccc(N3CCN(CC4CCN(CCOc5cc(F)c6c(=O)[nH]c(CSC7CCOCC7)nc6c5)CC4)CC3)c(F)c2)C(=O)N1 (stereo not drawn) [Example 213, 3-((3-fluoro-4-(4-((1-(2-((5-fluoro-4-oxo-2-(((tetrahydro-2H-pyran-4-yl)thio)methyl)-3,4-dihydroquinazolin-7-yl)oxy)ethyl)piperidin-4-yl)methyl)piperazin-1-yl)phenyl)amino)piperidine-2,6-dione]"
6,< 0.03 µM,"O=C1CCC(Nc2ccc(NC(=O)C3CCN(CCN4CCC(COc5cc(F)c6c(=O)[nH]c(COC7CCOCC7)nc6c5)CC4)CC3)c(F)c2)C(=O)N1 (stereo not drawn) [Example 201, N-(4-((2,6-dioxopiperidin-3-yl)amino)-2-fluorophenyl)-1-(2-(4-(((5-fluoro-4-oxo-2-(((tetrahydro-2H-pyran-4-yl)oxy)methyl)-3,4-dihydroquinazolin-7-yl)oxy)methyl)piperidin-1-yl)ethyl)piperidine-4-carboxamide]"
7,< 0.03 µM,"O=C1CCC(Nc2ccc(N3CCN(CCN4CCC(CNc5cc6nc(CSC7CCOCC7)[nH]c(=O)c6c(F)c5F)CC4)CC3)cc2)C(=O)N1 (stereo not drawn) [Example 129, 3-((4-(4-(2-(4-(((5,6-difluoro-4-oxo-2-(((tetrahydro-2H-pyran-4-yl)thio)methyl)-3,4-dihydroquinazolin-7-yl)amino)methyl)piperidin-1-yl)ethyl)piperazin-1-yl)phenyl)amino)piperidine-2,6-dione formate]"
8,< 0.03 µM,"O=C1CCC(Nc2ccc(N3CCC(C(=O)N4CC(N5CCC(COc6cc(F)c7c(=O)[nH]c(CC8CC8)nc7c6)CC5)C4)CC3)c(F)c2)C(=O)N1 (stereo not drawn) [Example 178, 3-((4-(4-(3-(4-(((2-(cyclopropylmethyl)-5-fluoro-4-oxo-3,4-dihydroquinazolin-7-yl)oxy)methyl)piperidin-1-yl)azetidine-1-carbonyl)piperidin-1-yl)-3-fluorophenyl)amino)piperidine-2,6-dione]"
9,< 0.03 µM,"O=C1CCC(Nc2ccc(N3CCC(C(=O)N4CC(N5CCC(COc6cc(F)c7c(=O)[nH]c(CSC8CCOCC8)nc7c6)CC5)C4)CC3)c(F)c2)C(=O)N1 (stereo not drawn) [Example 152, 3-((3-fluoro-4-(4-(3-(4-(((5-fluoro-4-oxo-2-(((tetrahydro-2H-pyran-4-yl)thio)methyl)-3,4-dihydroquinazolin-7-yl)oxy)methyl)piperidin-1-yl)azetidine-1-carbonyl)piperidin-1-yl)phenyl)amino)piperidine-2,6-dione formate]"
